Test results taken from ChEMBL document CHEMBL1143209, “Ohioensins F and G: protein tyrosine phosphatase 1B inhibitory benzonaphthoxanthenones from the Antarctic moss Polytrichastrum alpinum” (Bioorg Med Chem Lett, 2008).

What was measured:
[1] = target: T1, Tyrosine-protein phosphatase non-receptor type 1 (Homo sapiens, UniProt P18031); experiment: Inhibition of human recombinant PTP1B
T1 sequence (P18031 whole entry): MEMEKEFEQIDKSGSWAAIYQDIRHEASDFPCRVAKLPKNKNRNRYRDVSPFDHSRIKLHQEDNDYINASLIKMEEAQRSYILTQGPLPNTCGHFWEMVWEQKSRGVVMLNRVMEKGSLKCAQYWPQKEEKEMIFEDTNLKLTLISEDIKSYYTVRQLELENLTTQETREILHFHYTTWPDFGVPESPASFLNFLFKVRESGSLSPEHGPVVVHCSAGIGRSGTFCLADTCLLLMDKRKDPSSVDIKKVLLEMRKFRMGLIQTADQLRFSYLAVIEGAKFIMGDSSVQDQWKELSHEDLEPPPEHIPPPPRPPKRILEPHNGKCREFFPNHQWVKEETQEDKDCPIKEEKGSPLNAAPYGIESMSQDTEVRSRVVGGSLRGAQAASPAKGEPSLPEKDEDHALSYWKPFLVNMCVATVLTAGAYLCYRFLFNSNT

[2] = target: T1, Tyrosine-protein phosphatase non-receptor type 1; experiment: Inhibition of human recombinant PTP1B by Lineweaver-Burke plot

COc1cc(O)c2c3c1-c1c(O)cccc1[C@@H]1Oc4ccccc4[C@@H](CC2=O)[C@@H]31 [OHIOENSIN C]
IC50 [1]: 7.6 µM

O=C1c2c(O)cc(O)c3c2[C@@H]2[C@@H](c4ccccc4O[C@H]2c2cccc(O)c2-3)[C@H]1O [OHIOENSIN G]
IC50 [1]: 5.6 µM

O=C1C[C@]2(O)c3ccccc3O[C@H]3c4cc(O)ccc4-c4c(O)cc(O)c1c4[C@@H]32 [OHIOENSIN F]
IC50 [1]: 3.5 µM | Ki [2]: 1.5 µM

O=C1C[C@@H]2c3ccccc3O[C@H]3c4cc(O)ccc4-c4c(O)cc(O)c1c4[C@H]23 [OHIOENSIN A]
IC50 [1]: 4.3 µM
